Our source for the IC50 and Activity values is ChEMBL document CHEMBL4020729, “Synthesis and evaluation of anti-plasmodial and cytotoxic activities of epoxyazadiradione derivatives” (Eur J Med Chem, 2017).

The test system of test [1] is IMR-32. Description: Antiproliferative activity against human IMR32 cells after 48 hrs by SRB assay. Format: functional, cell-based. The conditions noted are these: IMR-32, 48 h. Background: Sulforhodamine B stains cellular protein and so reports cell mass.
The test system of test [2] is Plasmodium berghei. Description: Anti-plasmodial activity against Plasmodium berghei ANKA infected in BALB/c mouse at 50 mg/kg, ip assessed as reduction in parasitemia administered once per day for 4 days by Giemsa staining based light microscopic assay. The test is classed as functional, organism-based.
Test [3] has as its system MDA-MB-231. Description: Antiproliferative activity against human MDA-MB-231 cells after 48 hrs by SRB assay. The test is classed as functional, cell-based. The note with it: MDA-MB-231, 48 h.
For test [4], the system named is Plasmodium falciparum. Description: Anti-plasmodial activity against chloroquine-resistant Plasmodium falciparum Dd2 infected in human erythrocytes after 50 hrs by SYBR green dye based fluorescence assay. Format: functional, cell-based. The conditions noted are these: Dd2, 50 h.
The test system of test [5] is Plasmodium falciparum. Put plainly: Anti-plasmodial activity against chloroquine-sensitive Plasmodium falciparum 3D7 infected in human erythrocytes after 50 hrs by SYBR green dye based fluorescence assay. The test is classed as functional, cell-based. The conditions noted are these: 3D7, 50 h.
Test [6] has as its system SiHa. Description: Antiproliferative activity against human SiHa cells after 48 hrs by SRB assay. The test is classed as functional, cell-based.
The test system of test [7] is PANC-1. Description: Antiproliferative activity against human PANC1 cells after 48 hrs by SRB assay. Format: functional, cell-based. The note with it: PANC-1, 48 h.

Active and inactive are the calls of the source. No cut-off for these calls is given here.

With `COc1cc(-n2cc(CO/N=C3/[C@H]4O[C@]45[C@@]4(C)[C@H](CC[C@@]5(C)[C@@H]3c3ccoc3)[C@@]3(C)C=CC(=O)C(C)(C)[C@@H]3C[C@H]4OC(C)=O)nn2)c(OC)cc1Cl`, the IC50 in test [1] is over 100 µM; in test [3] it was over 100 µM; in test [4], 1.2 µM; in test [5] it was 1.5 µM; in test [6], over 100 µM; in test [7] it was 35.1 µM. For the same compound, the outcome in test [2] was inactive.

As to `CC(=O)O[C@@H]1C[C@H]2C(C)(C)C(=O)C=C[C@]2(C)[C@H]2CC[C@@]3(C)[C@H](c4ccoc4)C(=O)[C@H]4O[C@]43[C@@]21C` [EPOXYAZADIRADIONE], the IC50 in test [1] was over 100 µM; in test [3], over 100 µM; in test [4] it was 2.9 µM; in test [5], 2.9 µM; in test [6], over 100 µM; in test [7], over 100 µM.

Turning to `CC(=O)O[C@@H]1C[C@H]2C(C)(C)C(=O)C=C[C@]2(C)[C@H]2CC[C@@]3(C)[C@H](c4ccoc4)/C(=N\OCc4cn(CC(=O)Nc5ccc(I)c(Cl)c5)nn4)[C@H]4O[C@]43[C@@]21C`, the IC50 in test [1] is over 100 µM; in test [3] it was over 100 µM; in test [4] it was 87 µM; in test [5], 53.2 µM; in test [6], over 100 µM; in test [7], over 100 µM.

On to `C#CCO/N=C1/[C@H]2O[C@]23[C@@]2(C)[C@H](CC[C@@]3(C)[C@@H]1c1ccoc1)[C@@]1(C)C=CC(=O)C(C)(C)[C@@H]1C[C@H]2OC(C)=O`, for which the IC50 in test [1] is over 100 µM; in test [3], over 100 µM; in test [4], 8.4 µM; in test [5], 7 µM; in test [6], over 100 µM; in test [7] it was over 100 µM.

`CC(=O)O[C@@H]1C[C@H]2C(C)(C)C(=O)C=C[C@]2(C)[C@H]2CC[C@@]3(C)[C@H](c4ccoc4)/C(=N\OCc4cn(-c5ccc(C(C)=O)cc5)nn4)[C@H]4O[C@]43[C@@]21C`: the IC50 is over 100 µM in test [1]; over 100 µM in test [3]; 2.3 µM in test [4]; 3.1 µM in test [5]; over 100 µM in test [6]; over 100 µM in test [7].

As for `CC(=O)O[C@@H]1C[C@H]2C(C)(C)C(=O)C=C[C@]2(C)[C@H]2CC[C@@]3(C)[C@H](c4ccoc4)/C(=N\OCc4cn(CC(=O)Nc5ccc(C)cc5)nn4)[C@H]4O[C@]43[C@@]21C`, the concentration for half-maximal inhibition (IC50) in test [1] was over 100 µM; in test [3] it was over 100 µM; in test [4], 24 µM; in test [5], 31 µM; in test [6], over 100 µM; in test [7], over 100 µM.

As to `CC(=O)O[C@@H]1C[C@H]2C(C)(C)C(=O)C=C[C@]2(C)[C@H]2CC[C@@]3(C)[C@H](c4ccoc4)/C(=N\OCc4cn(-c5cc([N+](=O)[O-])ccc5Cl)nn4)[C@H]4O[C@]43[C@@]21C`, the IC50 in test [1] is over 100 µM; in test [3], over 100 µM; in test [4], 3.8 µM; in test [5], 5.1 µM; in test [6] it was over 100 µM; in test [7], over 100 µM.

On to `CCN1CCN(CC(=O)O[C@@H]2C[C@H]3C(C)(C)C(=O)C=C[C@]3(C)[C@H]3CC[C@@]4(C)[C@H](c5ccoc5)C(=O)[C@H]5O[C@]54[C@@]32C)CC1`, for which the IC50 in test [1] was over 100 µM; in test [3], over 100 µM; in test [4], 6 µM; in test [5], 8.6 µM; in test [6] it was over 100 µM; in test [7] it was over 100 µM.

For the compound `CC(=O)O[C@@H]1C[C@H]2C(C)(C)C(=O)C=C[C@]2(C)[C@H]2CC[C@@]3(C)[C@H](c4ccoc4)/C(=N\OCc4cn(-c5ccc(Cl)c([N+](=O)[O-])c5)nn4)[C@H]4O[C@]43[C@@]21C`, the IC50 in test [1] is over 100 µM; in test [3] it was over 100 µM; in test [4], 1.3 µM; in test [5], 2.8 µM; in test [6], over 100 µM; in test [7], over 100 µM.

Regarding `CC(=O)O[C@@H]1C[C@H]2C(C)(C)C(=O)C=C[C@]2(C)[C@H]2CC[C@@]3(C)[C@H](c4ccoc4)/C(=N\OCc4cn(CC(=O)Nc5ccc(F)c(Cl)c5)nn4)[C@H]4O[C@]43[C@@]21C`, the IC50 is over 100 µM in test [1]; over 100 µM in test [3]; 26 µM in test [4]; 32 µM in test [5]; over 100 µM in test [6]; over 100 µM in test [7].

Turning to `CC1(C)C(=O)C=C[C@]2(C)[C@H]3CC[C@@]4(C)[C@H](c5ccoc5)C(=O)[C@H]5O[C@]54[C@]3(C)[C@H](O)C[C@@H]12`, the figures for the IC50 in test [4] and in test [5] were 9.4 µM and 11.4 µM, respectively.

As to `CC(=O)O[C@@H]1C[C@H]2C(C)(C)C(=O)C=C[C@]2(C)[C@H]2CC[C@@]3(C)[C@H](c4ccoc4)/C(=N\O)[C@H]4O[C@]43[C@@]21C`, the IC50 in test [1] is over 100 µM; in test [3], over 100 µM; in test [4], 2.2 µM; in test [5], 7.7 µM; in test [6], over 100 µM; in test [7] it was over 100 µM.

For `CC(=O)O[C@@H]1C[C@H]2C(C)(C)C(=O)C=C[C@]2(C)[C@H]2CC[C@@]3(C)[C@H](c4ccoc4)/C(=N\OCc4cn(CC(=O)Nc5ccccc5)nn4)[C@H]4O[C@]43[C@@]21C`, the IC50 in test [1] was over 100 µM; in test [3] it was over 100 µM; in test [4] it was 8.3 µM; in test [5] it was 13.8 µM; in test [6] it was over 100 µM; in test [7] it was 25.4 µM.

As to `CC1(C)C(=O)C=C[C@]2(C)[C@H]3CC[C@@]4(C)[C@H](c5ccoc5)C(=O)[C@H]5O[C@]54[C@]3(C)C(=O)C[C@@H]12`, the IC50 in test [1] was over 100 µM; in test [3], 18 µM; in test [4] it was 20 µM; in test [5] it was 12.9 µM; in test [6] it was over 100 µM; in test [7], over 100 µM.

For `COc1cccc(C(=O)O/N=C2/[C@H]3O[C@]34[C@@]3(C)[C@H](CC[C@@]4(C)[C@@H]2c2ccoc2)[C@@]2(C)C=CC(=O)C(C)(C)[C@@H]2C[C@H]3OC(C)=O)c1`, the IC50 in test [1] is over 100 µM; in test [3] it was over 100 µM; in test [5] it was 8 µM; in test [6] it was over 100 µM; in test [7], over 100 µM.

For `CC1(C)C(=O)C=C[C@]2(C)[C@H]3CC[C@@]4(C)[C@H](c5ccoc5)C(=O)[C@H]5O[C@]54[C@]3(C)[C@H](OC(=O)c3ccc(F)c(Br)c3)C[C@@H]12`, the IC50 in test [1] is over 100 µM; in test [3], over 100 µM; in test [4] it was 5.5 µM; in test [5] it was 6 µM; in test [6] it was over 100 µM; in test [7], over 100 µM.

As usually defined, the IC50 is the point on the concentration scale where inhibition reaches its midpoint. A low value points to greater potency in that assay.
